# In patent US20230092001A1, “FURANEOL GLYCOSIDE COMPOUND, PHARMACEUTICAL COMPOSITION THEREOF, PREPARATION METHOD THEREFOR, AND APPLICATION THEREOF” (priority 2019, published 2023):
# Key:
# [1] = tested on: ulcerative colitis model (dextran sodium sulphate); test: Effect example 2: therapeutic effect on ulcerative colitis, dextran sodium sulphate model, oral gavage, 14 days; assay type: in vivo, C57 mice; conditions: treatment group 40 mg/kg oral gavage
# Protocol: Thirty-five 10-week-old male C57 mice, SPF class animal house, temperature 20-26° C., humidity 40%-70%, alternating light-dark periods (12 h/12 h).
# (§1) Quarantine-qualified animals with similar weights were selected for the experiment.
# Mice in the blank control group were given normal drinking water throughout the experiment. The other 6 groups of mice were given drinking water containing 2% dextran sodium sulphate from day 1 to day 5, normal drinking water from day 6 to day 7, drinking water containing 2% dextran sodium sulphate from day 8 to day 12, and normal drinking water from day 13 to day 14. The experiment ended on day 14. All groups were administered by oral gavage once a day according to table 7, until the end of the experiment on day 14.
# (§2) (1) The mice were weighed daily.
# (2) Blood samples were collected from the orbital vein on day 14 and stored at −80° C.
# (3) On day 14, the mice were sacrificed by cervical vertebra dislocation, the colon was removed and a small amount of fecal was taken from the colon and left as a sample. The colon length and colon weight were measured. A portion of the colon and the fecal sample was stored at −80° C.
# [2] = tested on: ulcerative colitis model (dextran sodium sulphate); test: Effect Example 3: therapeutic effect on ulcerative colitis, dextran sodium sulphate model, oral gavage, 7 days; assay type: in vivo, C57 mice; conditions: 40 mg/kg oral gavage
# Protocol: Fifty 10-week-old male C57 mice, SPF class animal house, temperature 20-26° C., humidity 40%-70%, alternating light-dark periods (12 h/12 h).
# as §1
# Mice in the blank control group were given normal drinking water throughout the experiment. The other 9 groups of mice were given drinking water containing 2% dextran sodium sulphate from day 1 to day 7. All groups were administered by oral gavage once a day according to table 10, until the end of the experiment.
# as §2
# (2) Blood samples were collected from the orbital vein on day 7 and stored at −80° C.
# (3) On day 7, the mice were sacrificed by cervical vertebra dislocation, the colon was removed and a small amount of fecal was taken from the colon and left as a sample. The colon length and colon weight were measured. A portion of the colon and the fecal sample was stored at −80° C.
smiles,measurement,setting,value
"CC(=O)OC[C@H]1O[C@@H](OC2=C(C)OC(=C(C)C)C2=O)[C@H](OC(C)=O)[C@@H](OC(C)=O)[C@@H]1OC(C)=O [Compound I-2, 4-O-[(2,3,4,6-tetra-O-acetyl)-β-D-glucosyl]-5-methyl-2-(1-methylethylidene)-3(2H)-furanone]",Average weight of mice,[1]; Day 1,26.86 g
same,Average weight of mice,[1]; Day 2,26.9 g
same,Average weight of mice,[1]; Day 3,26.82 g
same,Average weight of mice,[1]; Day 4,26.86 g
same,Average weight of mice,[1]; Day 5,26.58 g
same,Average weight of mice,[1]; Day 6,26.48 g
same,Average weight of mice,[1]; Day 7,25.18 g
same,Average weight of mice,[1]; Day 8,23.78 g
same,Average weight of mice,[1]; Day 9,23.64 g
same,Average weight of mice,[1]; Day 10,23.64 g
same,Average weight of mice,[1]; Day 11,24.72 g
same,Average weight of mice,[1]; Day 12,24.82 g
same,Average weight of mice,[1]; Day 13,24.8 g
same,Average weight of mice,[1]; Day 14,24.92 g
same,Average colon length of mice,[1]; day 14,6.2 cm
same,Average weight of mice,[2]; Day 1,21.53 g
same,Average weight of mice,[2]; Day 2,21.42 g
same,Average weight of mice,[2]; Day 3,21.25 g
same,Average weight of mice,[2]; Day 4,20.97 g
same,Average weight of mice,[2]; Day 5,20.72 g
same,Average weight of mice,[2]; Day 6,20.27 g
same,Average weight of mice,[2]; Day 7,19.27 g
same,Average colon length of mice,[2]; day 7,5.8 cm
